Data from patent publication US20150064724A1, “BIOMARKERS FOR PROGNOSES OF PULMONARY DISEASES” (University of Pittsburgh - of the Commonwealth System of …, priority 2009, published 2015).

System: CD4+CD28null T cells from lung transplant recipients with BOS
Experiment: Inhibition of proliferation by cyclosporine A (BrdU incorporation, flow cytometry)
Assay type: cell-based, human
Conditions: preliminary findings, n=2 subjects; compared with CD4+CD28+ cells
Protocol: Segregated CD28+ and CD28null CD4 T-cell subpopulations were individually cultured in duplicate wells coated with anti-CD3 monoclonal antibody (OKT3) (see above). Autologous nurse cells, positively selected during the initial CD4 T-cell isolations (see above) were added in a 3:1 nurse cell:CD4 T-cell ratio. In order to eliminate potential confounding by CD4dim monocytes, all CD4+ cells were depleted from the nurse cells (<<1% residual), prior to their use in cultures, by positive selection with anti-CD4-coated magnetic beads (Invitrogen, Carlsbad, Calif.). Cyclosporine (Novartis, East Hanover, N.J.) to a final concentration of 100 ng/ml was added to half the wells. Proliferation within the respective CD4 subpopulations were measured by bromodeoxyuridine (BrdU) incorporation, using reagents and methods supplied in a kit (BD Pharmingen). In brief, BrdU in a final concentration of 10 μM was added to cultures two days prior to their harvests. After 5±1 days of culture, cells were harvested from wells and stained with anti-CD4, fixed and permeabilized, and then incubated with anti-BrdU and 7-amino-actinomycin (7-AAD). The proportion of proliferating CD4+ T cells (BrdU+) among the viable cells (≧diploid DNA content) was determined by flow cytometry.

C=CC[C@@H]1/C=C(\C)C[C@H](C)C[C@H](OC)[C@H]2O[C@@](O)(C(=O)C(=O)N3CCCC[C@H]3C(=O)O[C@H](/C(C)=C/[C@@H]3CC[C@@H](O)[C@H](OC)C3)[C@H](C)[C@@H](O)CC1=O)[C@H](C)C[C@@H]2OC [tacrolimus]
resistance of CD4+CD28null T cells to the drug: relatively resistant
